Reference: PubChem BioAssay AID1912 (The Scripps Research Institute Molecular Screening Center, 2009)
Calls of active or inactive are those of the source. The rule behind the calls is not given here.

Molecular target: Luciferin 4-monooxygenase (Photinus pyralis) (UniProt P08659)
Assay: firefly luciferase inhibitor potency, HSP90 counter-screen, dose response, artefact control for HSP90 inhibitor project, biochemical, luminescence (AID 1912)
Settings: purified firefly luciferase, luminescence inhibition

Luciferin 4-monooxygenase (Photinus pyralis), sequence (P08659 whole entry, looked up): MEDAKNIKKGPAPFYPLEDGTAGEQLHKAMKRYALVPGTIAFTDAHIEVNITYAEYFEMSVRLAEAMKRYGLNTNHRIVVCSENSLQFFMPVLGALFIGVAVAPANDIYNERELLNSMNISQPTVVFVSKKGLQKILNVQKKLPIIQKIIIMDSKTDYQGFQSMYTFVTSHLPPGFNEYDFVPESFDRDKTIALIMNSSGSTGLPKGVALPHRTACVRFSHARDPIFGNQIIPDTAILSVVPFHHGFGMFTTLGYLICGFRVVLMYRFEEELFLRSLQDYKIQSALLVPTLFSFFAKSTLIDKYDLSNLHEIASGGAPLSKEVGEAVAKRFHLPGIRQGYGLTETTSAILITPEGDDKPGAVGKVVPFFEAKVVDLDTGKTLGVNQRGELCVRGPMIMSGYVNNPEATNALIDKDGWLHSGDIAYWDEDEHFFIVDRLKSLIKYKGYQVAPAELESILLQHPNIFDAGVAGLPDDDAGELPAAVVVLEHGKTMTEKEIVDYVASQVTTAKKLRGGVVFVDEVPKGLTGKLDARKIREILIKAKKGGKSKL

`O=C(CN1C(=O)c2ccccc2S1(=O)=O)c1ccc2c(c1)OCCO2` was tested. Which IC50 did it give?
Its IC50 is > 60 µM (inactive).

Which IC50 does the source give for `COc1ccc(/C=C/c2noc(-c3ccccc3OC(C)=O)n2)cc1` here?
The IC50 was “inactive”.

For `CC(C)Sc1nc(SCC(=O)NCc2ccco2)c2c3c(sc2n1)COC(C)(C)C3`, which IC50 is on record?
The IC50 was > 60 µM (inactive).

How did the IC50 turn out when `COC(=O)NCCOC(=O)N(O)c1ccc(Br)cc1` was run?
The IC50 was > 60 µM (inactive).

Which IC50 does the source give for `C#CCn1cc(/C=C2\NC(=O)NC2=O)c2ccccc21` here?
Its IC50 is > 60 µM (inactive).

Which IC50 does the source give for `Cc1ccccc1NC1=C/C(=N\S(=O)(=O)c2cccs2)c2ccccc2C1=O` here?
Its IC50 is > 20 µM (inactive).

With `COC(=O)c1ccc(NC(=O)c2ccc(C)cc2)o1` as the molecule, how does the IC50 read?
Its IC50 is > 60 µM (inactive).

`COc1ccc(C(=O)Oc2ccc(/C=N/Nc3ccc(Cl)c(C(=O)O)c3)cc2OC)cc1` was tested. Which IC50 did it give?
The IC50 was > 60 µM (inactive).

For `Cc1ccc(/C=C2/C(=O)c3ccc(C(=O)O)cc3C2=O)o1`, which IC50 is on record?
Its IC50 is > 60 µM (inactive).

`COc1ccc(N(/N=C2\Sc3ccccc3C2=O)C(C)=O)cc1` was tested. Which IC50 did it give?
The IC50 was > 60 µM (inactive).

With `CCc1ccc(OCc2ccc(C(=O)OC)o2)cc1` as the molecule, how does the IC50 read?
The IC50 was > 60 µM (inactive).

`O=C(O)c1cc(N/N=C/c2cccnc2)ccc1Cl` was tested. Which IC50 did it give?
Its IC50 is > 60 µM (inactive).

Which IC50 does the source give for `O=C(CN1C(=O)c2ccccc2S1(=O)=O)c1ccccc1Cl` here?
The IC50 was “inactive”.

For `Cc1nc(CS(=O)(=O)c2ccc(Cl)cc2)sc1C(=O)O`, which IC50 is on record?
Its IC50 is > 60 µM (inactive).

How did the IC50 turn out when `Nc1cc(-c2ccccc2)ccc1O` was run?
Its IC50 is > 60 µM (inactive).

`CCOC(=O)c1sc(NC(=O)c2ccc(C)o2)nc1C` was tested. Which IC50 did it give?
The IC50 was > 60 µM (inactive).

How did the IC50 turn out when `C=CCc1ccc(OCc2ccc(C(=O)OC)o2)c(OC)c1` was run?
Its IC50 is > 60 µM (inactive).

With `COC(=O)c1ccc2nc(NC(=O)C3CC3)sc2c1` as the molecule, how does the IC50 read?
Its IC50 is > 60 µM (inactive).

With `Cc1ccc(S(=O)(=O)/N=C2\C=C(Nc3cccc(C(=O)O)c3)C(=O)c3ccccc32)cc1` as the molecule, how does the IC50 read?
Its IC50 is > 60 µM (inactive).

With `Cc1cc2ccccc2n1CCNC(=O)c1ccccc1` as the molecule, how does the IC50 read?
Its IC50 is > 60 µM (inactive).

With `CC1CCN(c2ccc(-c3cccc(NC(=O)C(F)(F)F)c3)nn2)CC1` as the molecule, how does the IC50 read?
Its IC50 is > 60 µM (inactive).

With `CCOC(=O)C1=C(c2ccc(OC)cc2)C(=O)c2ccccc2C1=O` as the molecule, how does the IC50 read?
Its IC50 is > 60 µM (inactive).

With `CCN(CC)c1ccc2cc(NC(=O)CCC(=O)O)c(=O)oc2c1` as the molecule, how does the IC50 read?
The IC50 was > 60 µM (inactive).

With `CCOC(=O)C1CCCN(C(=O)c2sc3nc(-c4ccc(OC)cc4)cn3c2C)C1` (stereo not drawn) as the molecule, how does the IC50 read?
The IC50 was > 60 µM (inactive).

With `COC(=O)C1CCN(C(=O)c2ccc3nc(-c4cccc(OC)c4)oc3c2)CC1` as the molecule, how does the IC50 read?
Its IC50 is > 60 µM (inactive).

For `O=C(O)CSCC(=O)Nc1ccc(C2CCCCC2)cc1`, which IC50 is on record?
The IC50 was > 60 µM (inactive).

How did the IC50 turn out when `O=C(OCc1ccccn1)c1ccc(COc2ccc3ccccc3c2)o1` was run?
Its IC50 is > 60 µM (inactive).

How did the IC50 turn out when `O=C(O)c1cccc(NC(=S)NC(NC(=O)c2cccc([N+](=O)[O-])c2)C(Cl)(Cl)Cl)c1` (stereo not drawn) was run?
Its IC50 is > 60 µM (inactive).

`O=C(CN1C(=O)c2ccccc2S1(=O)=O)N1CCc2ccccc21` was tested. Which IC50 did it give?
The IC50 was > 60 µM (inactive).

For `COc1cc(/C=C/[N+](=O)[O-])ccc1OCc1cccc(C(=O)O)c1`, which IC50 is on record?
The IC50 was “inactive”.

Which IC50 does the source give for `O=C(O)c1cccc(-n2c(O)c(C=C3N=c4ccccc4=N3)sc2=S)c1` here?
The IC50 was > 60 µM (inactive).

`COCCn1c(C)cc(C(=O)Cn2nc(C(=O)O)c3ccccc3c2=O)c1C` was tested. Which IC50 did it give?
Its IC50 is “inactive”.

For `CCCCn1c(NC(=O)c2ccccc2Cl)c(C#N)c2nc3ccccc3nc21`, which IC50 is on record?
Its IC50 is > 60 µM (inactive).

How did the IC50 turn out when `CCOC(=O)c1csc(NC(=O)c2ccc(OCC)cc2)n1` was run?
Its IC50 is > 60 µM (inactive).

How did the IC50 turn out when `Cc1oc(-c2ccc(-c3ccccc3)cc2)nc1CN(C)C1CCOC1` (stereo not drawn) was run?
Its IC50 is > 60 µM (inactive).

Which IC50 does the source give for `Cc1ccc2nc(NC(=O)CSCC(=O)OCC(=O)c3ccccc3)sc2c1` here?
The IC50 was > 60 µM (inactive).

`COc1ccc(-c2cn3c(C)c(C(=O)Nc4cccc(C)n4)sc3n2)cc1` was tested. Which IC50 did it give?
The IC50 was “inactive”.

For `COc1cc(N2Cc3ccccc3C2)ccc1C=O`, which IC50 is on record?
The IC50 was > 60 µM (inactive).

For `Cc1cc(NO)nc(-c2ccc(Br)cc2)n1`, which IC50 is on record?
Its IC50 is > 60 µM (inactive).

How did the IC50 turn out when `COc1cc(/C=N/Nc2ccc(Cl)c(C(=O)O)c2)ccc1OC(=O)c1cccs1` was run?
Its IC50 is > 60 µM (inactive).

With `CC(=O)Nc1ccc(OS(=O)(=O)c2ccc([N+](=O)[O-])cc2)cc1` as the molecule, how does the IC50 read?
The IC50 was > 60 µM (inactive).

Which IC50 does the source give for `Cc1nc2ccc(C(=O)O)cc2[nH]1` here?
Its IC50 is > 60 µM (inactive).

`CCOC(=O)c1csc(NC(=O)c2ccc3c(c2)OCCO3)n1` was tested. Which IC50 did it give?
Its IC50 is > 60 µM (inactive).

How did the IC50 turn out when `CCCc1ccc(OCc2ccc(C(=O)N3CCSCC3)o2)cc1` was run?
Its IC50 is “inactive”.

`Cc1nc(NC(=O)c2cccc(Cl)c2)sc1C(=O)N1CCCCC1` was tested. Which IC50 did it give?
Its IC50 is > 60 µM (inactive).

Which IC50 does the source give for `COC(=O)c1ccc(COc2ccc3c(c2)CCC3)o1` here?
Its IC50 is > 60 µM (inactive).

`COC(=O)c1cc(C)nc2c1C(=O)C(=O)C=C2N1CCOCC1` was tested. Which IC50 did it give?
The IC50 was > 20 µM (inactive).

Which IC50 does the source give for `O=C(CSc1ncccc1C(=O)O)c1ccc2ccccc2c1` here?
Its IC50 is “inactive”.

With `C=CCOC(=O)c1sc(NC(=O)c2ccc(OC)cc2)nc1C` as the molecule, how does the IC50 read?
Its IC50 is > 60 µM (inactive).

Which IC50 does the source give for `COC(=O)c1ccc(N/C=C/C(=O)c2ccccc2)cc1` here?
Its IC50 is “inactive”.

How did the IC50 turn out when `C=CCOc1c(CNc2cccc(C(=O)O)c2)cccc1OC` was run?
The IC50 was > 60 µM (inactive).

With `Cc1cc(NC(=O)c2coc(=O)c(Br)c2)ccc1C(C)C` as the molecule, how does the IC50 read?
The IC50 was > 60 µM (inactive).

With `O=c1oc2ccc(Cl)cc2nc1/C=C(\O)c1ccco1` as the molecule, how does the IC50 read?
The IC50 was > 60 µM (inactive).

`CC(=O)CSc1ccc(-c2nc3ccccc3[nH]2)cn1` was tested. Which IC50 did it give?
The IC50 was > 60 µM (inactive).

Which IC50 does the source give for `O=C1C(Nc2ccccc2)=C/C(=N/S(=O)(=O)c2cccs2)c2ccccc21` here?
Its IC50 is “inactive”.

With `Nc1c(-c2ccccc2)cnn1-c1ccc(C(=O)O)cc1` as the molecule, how does the IC50 read?
The IC50 was “inactive”.

For `Cc1cc(C)c(S(=O)(=O)/N=C2\C=C(Nc3ccc(C(=O)O)cc3)C(=O)c3ccccc32)c(C)c1`, which IC50 is on record?
Its IC50 is > 60 µM (inactive).

`O=S(=O)(Cc1ccccc1)N(O)c1ccccc1` was tested. Which IC50 did it give?
The IC50 was > 60 µM (inactive).

Which IC50 does the source give for `CCOC(=O)c1ccc(-c2ccc(C=O)o2)cc1` here?
Its IC50 is > 60 µM (inactive).

With `CCN(CC)c1ccc(SS(=O)(=O)O)cc1` as the molecule, how does the IC50 read?
The IC50 was > 60 µM (inactive).

`COc1ccccc1Nc1nn2c(=O)c3ccc(C(=O)NCc4cccnc4)cc3nc2s1` was tested. Which IC50 did it give?
The IC50 was > 60 µM (inactive).

`O=C(O)c1ccc(S(=O)(=O)/N=C2\C=C(Nc3ccccc3F)C(=O)c3ccccc32)cc1` was tested. Which IC50 did it give?
Its IC50 is > 60 µM (inactive).

How did the IC50 turn out when `CC(=O)Nc1ccccc1OCC(=O)c1cc(C)n(Cc2cccs2)c1C` was run?
The IC50 was > 60 µM (inactive).

`Cc1ccc(S(=O)(=O)/N=C2\C=C(Nc3cccc(C(=O)O)c3)C(=O)c3ccccc32)c(C)c1` was tested. Which IC50 did it give?
The IC50 was > 60 µM (inactive).

How did the IC50 turn out when `COc1cccc(-c2cc3nc4c(c(NCC(C)(C)CN(C)C)n3n2)CCCC4)c1` was run?
The IC50 was > 60 µM (inactive).

With `CN1C(=O)S/C(=C/c2ccc(OCc3cccc(C(=O)O)c3)cc2)C1=O` as the molecule, how does the IC50 read?
Its IC50 is > 20 µM (inactive).

How did the IC50 turn out when `CN(C)c1ccc(C2Nc3cccc4cccc(c34)N2)cc1` was run?
The IC50 was > 60 µM (inactive).

How did the IC50 turn out when `Cc1cc2ccccc2n1CCNC(=O)c1cccs1` was run?
Its IC50 is > 60 µM (inactive).

How did the IC50 turn out when `Cc1nc(NC(=O)/C=C/c2ccccc2)sc1C(=O)Nc1ccccc1Cl` was run?
The IC50 was > 60 µM (inactive).

For `[O-]/[N+](=C\c1ccco1)c1ccc(Cl)cc1`, which IC50 is on record?
The IC50 was > 60 µM (inactive).

Which IC50 does the source give for `COCC(C)n1c(C)cc(C(=O)Cn2nc(C(=O)O)c3ccccc3c2=O)c1C` (stereo not drawn) here?
Its IC50 is > 60 µM (inactive).

For `CC(=O)Oc1ccc(Nc2ccccc2)cc1`, which IC50 is on record?
The IC50 was > 60 µM (inactive).

With `O=[N+]([O-])c1ccc(N=Nc2ncc[nH]2)cc1` as the molecule, how does the IC50 read?
Its IC50 is > 60 µM (inactive).

How did the IC50 turn out when `COC(=O)c1ccc(COc2ccc3c(C)c(C)c(=O)oc3c2)o1` was run?
Its IC50 is > 60 µM (inactive).

How did the IC50 turn out when `O=C(CN1C(=O)c2ccccc2S1(=O)=O)c1ccc2c(c1)OCCCO2` was run?
The IC50 was “inactive”.

Which IC50 does the source give for `Cc1ccccc1NC1=C/C(=N\S(=O)(=O)c2ccc(C(=O)O)cc2)c2ccccc2C1=O` here?
The IC50 was “inactive”.

How did the IC50 turn out when `CCCCOc1ccc(-c2cc(C(=O)NNC(=S)NCC)c3ccccc3n2)cc1` was run?
The IC50 was “inactive”.

Which IC50 does the source give for `Cc1cc(C)c2nc(N3CCC(C(=O)NCCCN4CC(C)CC(C)C4)CC3)sc2c1` (stereo not drawn) here?
The IC50 was > 60 µM (inactive).

Which IC50 does the source give for `COc1cc(/C=N/Nc2ccc(Cl)c(C(=O)O)c2)ccc1OC(=O)c1ccccc1F` here?
The IC50 was > 60 µM (inactive).

How did the IC50 turn out when `Cc1ccc(/C=C2\SC(=S)N(CCCC(=O)Nc3ccccn3)C2=O)cc1` was run?
Its IC50 is > 60 µM (inactive).

With `COc1ccc(-c2cc3c(=O)n(CC(=O)NCCCN4CCC(Cc5ccccc5)CC4)ncn3n2)cc1` as the molecule, how does the IC50 read?
The IC50 was “inactive”.

`COc1ccccc1NC(=O)c1coc(=O)c(Br)c1` was tested. Which IC50 did it give?
Its IC50 is > 60 µM (inactive).

With `O=[N+]([O-])c1ccc(S(=O)(=O)N2CCN=C2SCc2ccc(F)cc2)cc1` as the molecule, how does the IC50 read?
Its IC50 is > 60 µM (inactive).

With `COC(=O)c1ccccc1OCCCOc1ccc(C=O)cc1OC` as the molecule, how does the IC50 read?
Its IC50 is > 60 µM (inactive).

Which IC50 does the source give for `CCOc1ccc(-c2nc(CN3CCCCC3CCn3cccn3)c(C)o2)cc1` (stereo not drawn) here?
The IC50 was > 60 µM (inactive).

`COC(=O)c1ccccc1OCCCOc1ccc(C)cc1OC` was tested. Which IC50 did it give?
The IC50 was > 60 µM (inactive).

For `CCc1ccc(S(=O)(=O)/N=C2\C=C(Nc3ccc(C(=O)O)cc3)C(=O)c3ccccc32)cc1`, which IC50 is on record?
The IC50 was > 60 µM (inactive).

How did the IC50 turn out when `CS(=O)(=O)c1ccc(-c2cn3cc(C(=O)O)ccc3n2)cc1` was run?
Its IC50 is “inactive”.
